From patent publication US12441757B2, “Platform for screening NAD+ binding proteins in a cellular context” (OREGON HEALTH & SCIENCE UNIVERSITY, priority 2020, dated 2025)

Tests used:
PARP-10 = target: T1, PARP-10 (Homo sapiens, UniProt Q53GL7); assay: Competition labeling of PARP-10 by 2-ad-BAD; format: binding
T1 construct: Full length His6-PARP-1 and His6-SUMO-PARP-10 proteins we expressed and purified; His6 (N); SUMO (N); made in house
T1 sequence (Q53GL7 1-1025): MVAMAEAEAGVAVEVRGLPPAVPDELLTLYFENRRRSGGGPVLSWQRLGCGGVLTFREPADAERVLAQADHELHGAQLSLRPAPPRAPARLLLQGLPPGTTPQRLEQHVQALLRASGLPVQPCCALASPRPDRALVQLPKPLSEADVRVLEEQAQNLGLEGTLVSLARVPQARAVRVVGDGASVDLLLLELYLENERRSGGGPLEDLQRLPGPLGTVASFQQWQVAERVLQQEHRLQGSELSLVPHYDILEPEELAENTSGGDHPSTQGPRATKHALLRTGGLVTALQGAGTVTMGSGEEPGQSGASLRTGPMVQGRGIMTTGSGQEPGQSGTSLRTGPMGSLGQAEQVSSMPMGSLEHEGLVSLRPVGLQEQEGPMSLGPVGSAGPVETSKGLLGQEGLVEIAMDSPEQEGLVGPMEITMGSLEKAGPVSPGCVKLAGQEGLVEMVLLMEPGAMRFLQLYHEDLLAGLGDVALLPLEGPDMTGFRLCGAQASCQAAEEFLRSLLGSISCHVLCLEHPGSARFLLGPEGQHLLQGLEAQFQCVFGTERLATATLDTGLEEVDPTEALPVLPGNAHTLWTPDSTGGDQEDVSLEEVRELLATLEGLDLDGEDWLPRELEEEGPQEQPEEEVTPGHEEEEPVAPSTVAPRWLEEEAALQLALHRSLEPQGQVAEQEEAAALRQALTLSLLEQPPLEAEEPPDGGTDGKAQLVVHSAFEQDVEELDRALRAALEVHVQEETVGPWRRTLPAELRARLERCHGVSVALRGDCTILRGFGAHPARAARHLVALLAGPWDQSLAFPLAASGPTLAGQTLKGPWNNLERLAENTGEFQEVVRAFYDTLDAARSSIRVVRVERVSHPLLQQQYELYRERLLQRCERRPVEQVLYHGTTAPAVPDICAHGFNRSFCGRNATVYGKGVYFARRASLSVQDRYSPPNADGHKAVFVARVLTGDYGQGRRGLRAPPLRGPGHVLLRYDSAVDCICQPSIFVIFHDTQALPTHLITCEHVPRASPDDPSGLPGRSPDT
Description: FIG. 8. Densitometry analyses of FIG. 3A panels (A,B) comparing the inhibitory effect of nucleotides and (B) panels (C,D) comparing inhibitory effect of PARP inhibitors on PARP-1 and PARP-10 labelling by 2-ad-BAD. TAMRA in-gel fluorescence was normalized to Coomassie staining, except for PARP-1 NAD^+ treated samples where relative to control TAMRA signal is reported due to auto-PARylation induced molecular weight shift and therefore not detectable Coomassie signal at PARP-1 molecular weight of ˜110 kDa. Data are mean±SEM of 3 independent experiments.
(§1) Treatments. Recombinant PARP-1 (250 nM), PARP-10 (250 nM) or AK1 (500 nM; Novus Biologicals) were diluted in 100 mM NaCl, 50 mM HEPES [pH 7.4], 4 mM MgCl2, 0.2 mM TCEP. PARP-1 reactions also contained 10 μg/mL of activated calf thymus DNA (Sigma-Aldrich D4522), unless otherwise noted. In experiments reported in FIG. 2, the samples were treated with 0.1 μM 2-ad-BAD or ad-olaparib for 10 min. In competition experiments reported in FIG. 3 and Figure S3, samples were first treated with 150 μM of indicated nucleotides for 10 minute and then with 0.3 μM 2-ad-BAD for additional 10 min. All treatments occurred at RT. Samples were then kept in the dark or irradiated for 5 min in the RPR-100 Photochemical Reactor (Rayonet) equipped with 350 nm lamps at 4° C.
(§2) Click Chemistry. 25 μL of each sample was mixed with 5 μL of fatty acid free BSA and SDS to give a final Click reaction concentration of 1 mg/mL and 1%, respectively. Click reactions were started by adding 15 μL of PBS based 3× click reaction mix (final 1× concentrations shown): 100 μM Tris[(1-benzyl-1H-1,2,3triazol-4-yl)methyl]amine (TBTA, Click Chemistry Tools), 1 mM CuSO4, 40 μM tetramethylrhodamine (TAMRA)-azide (Click Chemistry Tools), 1 mM Tris(2-carboxyethyl)phosphine hydrochloride (TCEP, Thermo Fisher) and 5% tert-Butyl alcohol to each sample, and let to proceed for 1 h at RT while gently shaking. Reactions were stopped by adding 4× Laemmli sample buffer and boiling at 95° C. for 5 min.
(§3) In gel fluorescence and staining. Samples were loaded to 10 or 12% SDS-polyacrylamide gels and run until the dye front left the gel. In-gel fluorescence was detected with ChemiDoc XRS+ (Biorad) using Rhodamine filter and then the gels were stained with Coomassie blue or Silver using standard protocols.

Adenylate kinase 1 (AK1) = target: T2, Adenylate kinase 1 (AK1) (Homo sapiens, UniProt P00568); assay: Labeling of recombinant AK1 by 2-ad-BAD and nucleotide competition; format: binding; details: 150 μM competitor, 0.3 μM 2-ad-BAD
T2 construct: purchased Novus Biologicals NBP1-50855
T2 sequence (P00568 1-194): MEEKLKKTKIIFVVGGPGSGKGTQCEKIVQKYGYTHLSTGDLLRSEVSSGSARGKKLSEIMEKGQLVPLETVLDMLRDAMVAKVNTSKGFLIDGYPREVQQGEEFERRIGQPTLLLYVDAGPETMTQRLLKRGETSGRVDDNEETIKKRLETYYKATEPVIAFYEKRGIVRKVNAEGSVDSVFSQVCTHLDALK
Procedure: FIG. 10. Validation of Adenylate kinase 1 (AK1) as a putative NAD^+/NADH binding protein. […] Recombinant AK1 (500 nM) in 100 mM NaCl, 50 mM HEPES [pH 7.4], 4 mM MgCl2, 0.2 mM TCEP was incubated with 150 μM of indicated competitor molecule for 10 min, followed by 10 min treatment with 0.3 μM 2-ad-BAD. Samples were then subjected to UV light for 5 min, conjugated to TAMRA using Click chemistry, separated by SDS-PAGE and in-gel fluorescence was recorded. […] (FIG. 10B) A differential scanning fluorimetry assay is supportive of NADH as novel AK1 ligand. Recombinant AK1 (0.1 mg/mL) in 100 mM NaCl, 50 mM HEPES, pH 7.4, 4 mM MgCl2, 7.5× SYPRO Orange was tested for thermal stability in the absence or presence of indicated nucleotides at 1 mM. Ordinate reports on the difference of melt peak temperature prompted by indicated treatments. Data are mean±SEM of 3 independent experiments.
as §1, §2, §3

NC(=O)c1cccc([C@@H]2O[C@H](COP(=O)(O)OP(=O)(O)OC[C@H]3O[C@@H](n4cnc5c(N)ncnc54)[C@H](O)[C@@H]3O)[C@@H](O)[C@H]2O)c1 [BAD, benzamide adenine dinucleotide]
block of 2-ad-BAD labeling of PARP-10 by nucleotides (PARP-10; 150 μM nucleotide, 0.3 μM 2-ad-BAD): reduced | dose-dependent block of 2-ad-BAD labeling of PARP-10 (PARP-10; competitor dose series): dose-dependently block the labeling of PARP-10 | competition of 2-ad-BAD labeling of recombinant AK1 (Adenylate kinase 1 (AK1)): effectively competed
